Where a name gives a salt, the structure may show the parent alone.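 Exposure lasted 48 hours, with cells grown in 96-well plates and compounds tested at five concentrations. At the GI50, growth is halved.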 The source made the active and inactive calls. No stated cut-off is given here; in the data, active = GI50 up to about 1.1 µM and inactive = higher. A value given as a limit tells only on which side of the number the result lay.

Holding throughout (test): NCI tumour cell line growth inhibition, 48 h
Assay [1] relates to 786-0.
Assay [2] has as its system A549.
For assay [3], the system named is CCRF-CEM.
Assay [4] concerns DU-145.
For assay [5], the system named is HCT-116.
For assay [6], the system named is HL-60.
The subject of assay [7] is Hs-578T.
Assay [8] has as its system LOX IMVI.
Assay [9] relates to MDA-N.
Assay [10] relates to NCI-H226.
Assay [11] relates to NCI-H23.
Assay [12] relates to NCI-H522.
Assay [13] concerns OVCAR-8.
The subject of assay [14] is SF-268.
Assay [15] deals with SF-539.
Assay [16] deals with SK-MEL-28.
Assay [17] concerns T47D.
The test system of assay [18] is UACC-257.
Assay [19] relates to UO-31.
The test system of assay [20] is SR.

In the case of `O=[N+]([O-])c1cc(Cl)ccc1Sc1ccccc1`, the GI50 in [1] was > 100 µM (inactive); in assay [2] it was > 100 µM (inactive); in [3], 89.9 µM (inactive); in assay [4] it was > 100 µM (inactive); in [5], 34.3 µM (inactive); in [6], 61.7 µM (inactive). In addition, the GI50 in assay [7] is > 100 µM (inactive); in [8] it was > 100 µM (inactive); in [9], 98.4 µM (inactive); in [10], 34.8 µM (inactive); in assay [11], > 100 µM (inactive); in [12], > 100 µM (inactive). Further, the GI50 was > 100 µM (inactive) in assay [13]; > 100 µM (inactive) in assay [14]; > 100 µM (inactive) in assay [15]; > 100 µM (inactive) in assay [16]; 69.5 µM (inactive) in [17]; > 100 µM (inactive) in [18]. Further, the GI50 in assay [19] was 23.6 µM (inactive).
For the compound `O=[N+]([O-])C(C(Cl)=C(Cl)Cl)=C(N1CCOCC1)N1CCOCC1`, the GI50 in [1], in assay [2], in [3], in [4], in assay [5] and in assay [6] was > 100 µM (inactive) in each case. Further, the GI50 is 54.2 µM (inactive) in assay [7]; > 100 µM (inactive) in [8]; > 100 µM (inactive) in [9]; > 100 µM (inactive) in assay [10]; > 100 µM (inactive) in assay [11]; > 100 µM (inactive) in [12]. Also, the GI50 in assay [13], in assay [14], in assay [15], in assay [16], in assay [17] and in [18] was > 100 µM (inactive) in each case. Moreover, the GI50 in [19] was > 100 µM (inactive).
As to `O=C1Nc2ccccc2/C1=C\c1c(Cl)nc2n1CCS2`, the GI50 in assay [1] was 23.4 µM (inactive); in assay [2], 31.3 µM (inactive); in assay [3] it was 26.9 µM (inactive); in assay [4], 30.6 µM (inactive); in assay [5], 23.6 µM (inactive); in [6], 16.8 µM (inactive). The GI50 was 16.6 µM (inactive) in [7]; 31.8 µM (inactive) in assay [8]; 15.7 µM (inactive) in [9]; 23.7 µM (inactive) in assay [11]; 16.2 µM (inactive) in assay [12]; 34.4 µM (inactive) in [13]. The GI50 in assay [14] is 27.4 µM (inactive); in [16] it was 32.4 µM (inactive); in assay [17], 19.6 µM (inactive); in assay [18] it was 13.7 µM (inactive); in assay [19] it was 27 µM (inactive).
On to `N#CSC#CCCC#CSC#N`, for which the GI50 in [1] was 20.3 µM (inactive); in assay [2] it was 19.6 µM (inactive); in [3], 3.1 µM (inactive); in assay [4], 15 µM (inactive); in assay [5], 22.8 µM (inactive); in assay [6], > 100 µM (inactive). Besides, the GI50 in assay [7] was 23.5 µM (inactive); in assay [8] it was 18.7 µM (inactive); in assay [9] it was 18.2 µM (inactive); in assay [10] it was 25.1 µM (inactive); in assay [11], 20.6 µM (inactive); in [12], 2.2 µM (inactive). Further, the GI50 in assay [13] is 25.4 µM (inactive); in assay [14] it was 30.1 µM (inactive); in [15], 19.5 µM (inactive); in assay [16] it was 29.4 µM (inactive); in [20], 7.21 µM (inactive); in assay [18] it was 16.9 µM (inactive). Further, the GI50 in [19] is 18 µM (inactive).
As to `S=P(N1CC1)(N1CC1)N1CC1` [THIOTEPA], the GI50 was 39.8 µM (inactive) in assay [1]; 50.4 µM (inactive) in [2]; 9.46 µM (inactive) in [3]; 32.1 µM (inactive) in assay [4]; 116 µM (inactive) in assay [5]; 7.45 µM (inactive) in assay [6]. The GI50 in [7] was 361 µM (inactive); in assay [8], 39.6 µM (inactive); in assay [9], 161 µM (inactive); in assay [10], 110 µM (inactive); in assay [11], 36.1 µM (inactive); in assay [12], 101 µM (inactive). The GI50 is 110 µM (inactive) in assay [13]; 39.4 µM (inactive) in assay [14]; 37.7 µM (inactive) in assay [15]; 186 µM (inactive) in assay [16]; 171 µM (inactive) in [17]; 134 µM (inactive) in [18]. Besides, the GI50 in assay [19] is 97.9 µM (inactive).
`COc1ccc(OC)c(CC2CCc3nc(N)nc(N)c3C2)c1` (centres undefined): the GI50 in [1] was 0.0565 µM (active); in assay [2] it was < 0.01 µM (active); in assay [3] it was 0.515 µM (active); in assay [4], 1.62 µM (inactive); in assay [5], < 0.01 µM (active); in assay [6], 3.58 µM (inactive). In addition, the GI50 in assay [7] is 23.7 µM (inactive); in assay [8], 0.0561 µM (active); in assay [9] it was < 0.01 µM (active); in assay [10] it was 20.9 µM (inactive); in [11], 0.251 µM (active); in [12], 0.774 µM (active). The GI50 in assay [13] was 20.3 µM (inactive); in [14] it was < 0.0192 µM (active); in assay [15], 0.275 µM (active); in assay [16] it was 18.8 µM (inactive); in assay [17] it was 20.1 µM (inactive); in assay [18] it was 5.78 µM (inactive). Also, the GI50 in [19] was 4.85 µM (inactive).
As to `C#Cc1cccc(Nc2ncnc3cc(OCCOC)c(OCCOC)cc23)c1` [ERLOTINIB HYDROCHLORIDE], the GI50 in assay [1] was 8.91 µM (inactive); in assay [2] it was 1.59 µM (inactive); in assay [3], > 100 µM (inactive); in [5], 6.05 µM (inactive); in assay [7], 5.01 µM (inactive); in assay [8], 4.34 µM (inactive). Also, the GI50 is 41 µM (inactive) in assay [9]; 41.7 µM (inactive) in [11]; 7.23 µM (inactive) in assay [13]; 15.4 µM (inactive) in assay [15]; > 100 µM (inactive) in assay [16]; > 100 µM (inactive) in assay [18]. Besides, the GI50 in [19] is 3.79 µM (inactive).
In the case of `COC(=O)/C=C(\C)CC/C=C(\C)CCC(O)C(C)(C)O` (centres undefined), the GI50 was 19.4 µM (inactive) in assay [1]; 34.8 µM (inactive) in assay [2]; 15.5 µM (inactive) in [3]; 20.8 µM (inactive) in [5]; 15.6 µM (inactive) in assay [6]; 28.6 µM (inactive) in assay [7]. Further, the GI50 is 16.2 µM (inactive) in [8]; 23.8 µM (inactive) in assay [9]; 28.8 µM (inactive) in [10]; 29.2 µM (inactive) in [11]; 25.1 µM (inactive) in assay [13]; 18.7 µM (inactive) in assay [15]. For the same compound, the GI50 is 17.9 µM (inactive) in [16], 17.8 µM (inactive) in assay [20], 36.4 µM (inactive) in assay [18] and 39.2 µM (inactive) in [19].
With `Cc1cc(S(=O)(=O)Nc2nc(N)n(C)n2)c(S)cc1Cl`, the GI50 in [1], in assay [2], in assay [3], in assay [4], in assay [5] and in assay [6] was > 10 µM (inactive) in each case. For the same compound, the GI50 in [7], in assay [8], in [9], in assay [10], in [11] and in [12] was > 10 µM (inactive) in each case. Further, the GI50 in assay [13], in assay [14], in assay [15], in assay [16], in assay [17] and in [18] was > 10 µM (inactive) each time. For the same compound, the GI50 in assay [19] was > 10 µM (inactive).
Regarding `COC(=O)/C=C/c1cc(OC)c2oc(-c3ccc(OC)c(OC)c3)c(C(=O)OC)c2c1`, the GI50 in assay [1], in assay [2], in assay [3], in [4], in assay [6] and in assay [7] was > 100 µM (inactive) in each case. Also, the GI50 in assay [8], in assay [9], in assay [11], in [13], in assay [14] and in assay [16] was > 100 µM (inactive) throughout. The GI50 in assay [20], in [17], in [18] and in assay [19] was > 100 µM (inactive) each time.
As to `CC(=O)OCC(Br)C1(C)CCC(C(C)(C)Br)O1` (centres undefined), the GI50 was > 100 µM (inactive) in assay [1]; 63.8 µM (inactive) in [2]; > 100 µM (inactive) in assay [3]; > 100 µM (inactive) in [4]; 46.8 µM (inactive) in assay [5]; > 100 µM (inactive) in [6]. In addition, the GI50 in assay [7] was 17.9 µM (inactive); in assay [8], 23.1 µM (inactive); in [9], 44.7 µM (inactive); in assay [10], 32.8 µM (inactive); in assay [11], 65.5 µM (inactive); in assay [12] it was 28.5 µM (inactive). The GI50 is > 100 µM (inactive) in assay [14]; > 100 µM (inactive) in [15]; 79.6 µM (inactive) in assay [16]; 77.1 µM (inactive) in assay [20]; 12.1 µM (inactive) in assay [18]; 39.6 µM (inactive) in assay [19].

The values above are taken from ChEMBL document CHEMBL1201862, “PubChem BioAssay data set” (2004).
